The text below walks through data of patent publication US7429607B2, “5-HT2B receptor antagonists” (Asterand UK Limited, priority 2002, dated 2008).

Data set [1] deals with T1, cloned human 5-HT2A receptor (Homo sapiens, UniProt P28223).
T1 construct: purchased Euroscreen; host or cells: CHO-K1 cells
The experiment in a line: Human 5-HT2A receptor binding assay ([3H]ketanserin, CHO-K1 membranes). To be noted: displacement of [3H]ketanserin (1 nM), read-out: 5-HT2A pKi (converted). How it is done: (§1) The binding affinity of ligands for human 5-HT2A and 5-HT2C receptors was determined using the following assay.
Membrane preparations from CHO-K1 cells expressing the cloned human 5-HT2A receptor were obtained (Euroscreen). The membranes were thawed rapidly and diluted in assay buffer containing Tris-HCl (50 mM, pH 7.7). The membranes were resuspended by homogenisation, prior to adding 15 μg of membranes to assay wells containing [3H] ketanserin (1 nM), assay buffer (50 mM Tris at pH 7.4) containing pargyline (10 μM), and test compounds (1×10^−10 to 1×10^−4M). Non specific binding was determined in the presence of 100 μM mianserin. After 15 minutes incubation at 37° C., the assay mixture was filtered through a combination of GF-C and GF-B filters, pre-soaked in 0.05% Brij, using a Brandel cell harvester, and were washed three times using ice cold Tris-HCl buffer (50 mM). Radioactivity retained on the filters was determined by liquid scintillation counting. For each test compound, the concentration that inhibited binding of [^3H]ketanserin by 50% was determined using curve fitting software (Prism). Kd values (concentration of ketanserin required to occupy 50% of the receptor binding sites at equlibrium) determined from saturation binding studies were then used to calculate inhibition dissociation constants (Ki) using the following equation: […]

Data set [2] concerns the target T2, cloned human 5-HT2C receptor (Homo sapiens, UniProt P28335).
T2 construct: purchased Euroscreen; host or cells: CHO-K1 cells
T2 sequence (P28335 33-458): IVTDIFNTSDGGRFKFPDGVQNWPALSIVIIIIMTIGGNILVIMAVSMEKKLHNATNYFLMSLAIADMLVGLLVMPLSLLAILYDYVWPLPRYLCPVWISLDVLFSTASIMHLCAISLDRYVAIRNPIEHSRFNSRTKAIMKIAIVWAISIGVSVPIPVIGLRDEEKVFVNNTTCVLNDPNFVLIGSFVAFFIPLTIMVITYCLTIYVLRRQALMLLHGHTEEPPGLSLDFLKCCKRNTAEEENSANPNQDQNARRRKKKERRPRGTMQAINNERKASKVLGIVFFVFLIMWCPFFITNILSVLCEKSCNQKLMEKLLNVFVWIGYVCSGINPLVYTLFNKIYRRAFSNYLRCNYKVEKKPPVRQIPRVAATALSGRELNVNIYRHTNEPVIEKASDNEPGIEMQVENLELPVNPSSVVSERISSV
The experiment in a line: Human 5-HT2C receptor binding assay ([3H]mesulergine, CHO-K1 membranes). To be noted: displacement of [3H]mesulergine (1 nM), read-out: 5-HT2C pKi (converted). How it is done: as §1
Membrane preparations from CHO-K1 cells expressing the cloned human 5-HT2C receptor were obtained (Euroscreen). The membranes were thawed rapidly and diluted in assay buffer containing Tris-HCl (50 mM, pH 7.7), ascorbic acid (0.1%) and pargyline (10 μM). The membranes were resuspended by homogenisation, prior to adding 6 μg of membranes to assay wells containing [^3H] mesulergine (1 nM), assay buffer (50 mM Tris at pH 7.7 and 0.1% ascorbic acid) containing pargyline (10 μM), and test compounds (1×10^−10 to 1×10^−4M). Non specific binding was determined in the presence of 100 μM mianserin. After 30 minutes incubation at 37° C., the assay mixture was filtered through a combination of GF-C and GF-B filters, pre-soaked in 1% bovine serum albumin, using a Brandel cell harvester, and were washed three times using ice cold Tris-HCl buffer (50 mM). Radioactivity retained on the filters was determined by liquid scintillation counting. For each test compound, the concentration that inhibited binding of [3H]mesulergine by 50% was determined using curve fitting software (Prism). Kd values (concentration of mesulergine required to occupy 50% of the receptor binding sites at equlibrium) determined from saturation binding studies were then used to calculate inhibition dissociation constants (Ki) using the following equation: […]

Data set [3] concerns the target T3, human cloned 5-HT2B receptors (Homo sapiens, UniProt P41595).
T3 construct: expressed in transfected cells; host or cells: CHO-K1 cells
Nature of the data set: Human cloned 5-HT2B receptor binding assay ([3H]LSD, CHO-K1 membranes). The settings on record: displacement of [3H]LSD (1 nM), read-out: 5-HT2B pKi (converted). On the procedure: The binding affinity of the compounds for human cloned 5-HT2B receptors was determined using the following assay.
CHO-K1 cells expressing cloned 5-HT2B receptor were maintained in Ultra-CHO medium containing 400 μg/ml of G418, 100 U/ml penicillin, 100 μg/ml streptomycin, 2.5 μg/ml fungizone and 1% foetal bovine serum, in 95/5% O2/CO2 at 37° C. The cells were harvested using 0.25% trypsin and were centrifuged at 800 rpm for 8 minutes. The cells were homogenised in 50 mM HEPES buffer containing 1 mM disodium EDTA and 1 mM PMSF at pH 7.4, using a Dounce homogeniser (20 strokes). The homogenate was centrifuged at 2280 rpm (1000 g) and 4° C. for 10 minutes, after which the supernatant was removed by decanting. The pellet was re-homogenised as above, and the resulting supernatant removed and combined with that already obtained. The supernatant solution was then centrifuged at 18300 rpm (40000 g) for 10 minutes at 4° C. using a Sorvall centrifuge. The supernatant was removed, and the pellet was re-suspended in 50 mM buffer at pH 7.4 using a Ultra-turrax T25 Polytron, before centrifugation again at 40000 g as above. This wash procedure was repeated, after which the membrane preparation was stored at a concentration of 1 mg/ml at −80° C. until use.
The membranes were thawed rapidly and diluted in assay buffer containing Tris-HCl (50 mM, pH 7.4), ascorbic acid (0.1%) and calcium chloride (4 mM). The membranes were homogenised to resuspend them, prior to adding 10 or 15 μg of membranes to assay wells containing [^3H]LSD (1 nM), assay buffer (50 mM Tris, 4 mM calcium chloride and 0.1% ascorbic acid) containing pargyline (10 μM), and the test compounds (1×10^−10 to 1×10^−4M). Non specific binding was determined in the presence of 100 μM 5-HT. After 30 minutes incubation at 37° C., the assay mixture was filtered through a combination of GF-C and GF-B filters, pre-soaked in 1% polyethyleneimine, using a Brandel cell harvester, and were washed three times using 50 mM Tris-HCl. Radioactivity retained on the filters was determined by liquid scintillation counting. For each test compound, the concentration that inhibited binding of [3H]LSD by 50% was determined using curve fitting software (Prism). Kd values (concentration of LSD required to occupy 50% of the receptor binding sites at equilibrium) determined from saturation binding studies were then used to calculate inhibition dissociation constants (Ki) using the following equation: […]
This approach follows that set out in Kenakin, T.P. Pharmacologic analysis of drug-receptor interaction. Raven Press, New York, 2nd Edition.
(In general: Loss of bound radioactivity is the signal in a displacement assay; it reports binding, not function.)

T3 sequence (P41595 whole entry): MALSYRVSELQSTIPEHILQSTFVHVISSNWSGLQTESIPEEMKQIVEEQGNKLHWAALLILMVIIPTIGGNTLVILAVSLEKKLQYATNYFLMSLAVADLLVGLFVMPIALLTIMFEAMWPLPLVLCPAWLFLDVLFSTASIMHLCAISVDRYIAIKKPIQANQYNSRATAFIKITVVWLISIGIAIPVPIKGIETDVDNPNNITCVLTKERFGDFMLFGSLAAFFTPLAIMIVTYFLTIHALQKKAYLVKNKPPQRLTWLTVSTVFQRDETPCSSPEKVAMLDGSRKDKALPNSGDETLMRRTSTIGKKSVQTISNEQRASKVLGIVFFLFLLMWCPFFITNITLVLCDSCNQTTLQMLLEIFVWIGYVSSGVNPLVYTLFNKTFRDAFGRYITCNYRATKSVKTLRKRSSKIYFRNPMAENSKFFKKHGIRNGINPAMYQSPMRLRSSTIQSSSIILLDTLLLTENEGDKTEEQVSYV
T1 sequence (P28223 whole entry): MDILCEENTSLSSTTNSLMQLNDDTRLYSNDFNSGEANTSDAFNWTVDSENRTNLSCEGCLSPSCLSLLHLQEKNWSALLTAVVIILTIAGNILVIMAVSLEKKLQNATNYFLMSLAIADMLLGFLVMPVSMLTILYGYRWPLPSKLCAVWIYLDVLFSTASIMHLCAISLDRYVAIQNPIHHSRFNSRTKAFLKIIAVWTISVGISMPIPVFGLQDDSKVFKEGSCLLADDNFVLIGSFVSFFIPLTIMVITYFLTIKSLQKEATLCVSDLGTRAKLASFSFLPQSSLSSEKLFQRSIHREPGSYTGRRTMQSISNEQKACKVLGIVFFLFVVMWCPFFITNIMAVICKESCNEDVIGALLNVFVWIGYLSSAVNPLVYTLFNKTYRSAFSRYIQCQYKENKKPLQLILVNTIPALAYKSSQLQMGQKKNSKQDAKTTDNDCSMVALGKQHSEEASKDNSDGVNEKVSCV

Broadly, the melting point is the temperature of the solid-liquid transition. For the compound `Nc1nc(-c2ccc(F)c3ccccc23)co1` [Compound 4, 2-amino-4-(4′-fluoronaphth-1-yl)oxazole], the melting point fell in the range of 171 to 174 °C. Moreover, in data set [1], the Ki was greater than 1000 nM. In addition, the Ki in data set [2] was greater than 1000 nM. Further, the Ki in data set [3] was less than 100 nM.
In the case of `Nc1nc(-c2cccc3ccc(Br)cc23)co1` [Compound 5, 2-amino-4-(7′-bromonaphth-1-yl)oxazole], the melting point lay in the range of 189 to 190 °C. Further, in data set [1], the Ki is greater than 1000 nM. For the same compound, the Ki in data set [2] is greater than 1000 nM. For the same compound, the Ki in data set [3] is less than 100 nM.
For the compound `CN(C)c1nc(-c2cccc3ccccc23)co1` [Compound 8, 2-dimethylamino-4-(naphth-1-yl)oxazole], the melting point is 30 to 32 °C. Moreover, the Ki in data set [1] is greater than 10000 nM. For the same compound, the Ki in data set [2] is greater than 10000 nM. Besides, the Ki in data set [3] is less than 1000 nM.
In turn, `CC(=O)Nc1nc(-c2cccc3ccccc23)co1` [Compound 9, 2-acetylamino-4-(naphth-1-yl)oxazole] showed a melting point of 188 to 190 °C. Also, in data set [1], the Ki was greater than 10000 nM. In addition, the Ki in data set [2] was greater than 1000 nM. The Ki in data set [3] was less than 1000 nM.
In the case of `CCOc1ccc2ccccc2c1-c1coc(N)n1` [Compound 10, 4-(2-ethoxy-naphthalen-1-yl)-oxazol-2-ylamine], the Ki in data set [1] was greater than 1000 nM; in data set [2], greater than 1000 nM; in data set [3] it was less than 10 nM.
As for `COc1ccc(-c2coc(N)n2)c2ccccc12` [Compound 11, 4-(4-methoxy-naphthalen-1-yl)-oxazol-2-ylamine], the Ki in data set [1] was greater than 10000 nM; in data set [2] it was greater than 10000 nM; in data set [3], less than 100 nM.
For `Nc1nc(-c2c(OCc3ccccc3)ccc3ccccc23)co1` [Compound 12, 4-(2-benzyloxy-naphthalen-1-yl)-oxazol-2-ylamine], the Ki in data set [3] was less than 1000 nM.
For `Cc1c(-c2coc(N)n2)sc2ccccc12` [Compound 13, 4-(3-methyl-benzo[b]thiophen-2-yl)-oxazol-2-ylamine], the Ki is greater than 10000 nM in data set [1], greater than 1000 nM in data set [2] and less than 1000 nM in data set [3].
With `Nc1nc(-c2ccc3c(c2)OCCO3)co1` [Compound 14, 4-(2,3-dihydro-benzo[1,4]dioxin-6-yl)-oxazol-2-ylamine], the Ki in data set [1] is greater than 10000 nM; in data set [2], greater than 10000 nM; in data set [3], less than 1000 nM.
As to `Nc1nc(-c2cccc3sccc23)co1` [Compound 15, 4-benzo[b]thiophen-4-yl-oxazol-2-ylamine], the Ki in data set [1] is greater than 1000 nM; in data set [2], greater than 1000 nM; in data set [3], less than 1000 nM.
With `COc1c(-c2coc(N)n2)ccc2ccccc12` [Compound 18, 4-(1-methoxy-naphthalen-2-yl)-oxazol-2-ylamine], the Ki in data set [1] was greater than 10000 nM; in data set [2], greater than 10000 nM; in data set [3], less than 1000 nM.
`Nc1nc(-c2cccc3c(Br)cccc23)co1` [Compound 19, 4-(5-bromo-naphthalen-1-yl)-oxazol-2-ylamine]: the Ki in data set [1] is greater than 10000 nM; in data set [2], greater than 1000 nM; in data set [3], less than 10000 nM.
`N#Cc1ccc2cccc(-c3coc(N)n3)c2c1` [Compound 20, 4-(7-carbonitrile-naphthalen-1-yl)-oxazol-2-ylamine]: the figures for the Ki in data set [1], in data set [2] and in data set [3] were greater than 10000 nM, greater than 10000 nM and less than 10000 nM, respectively.
For the compound `N#Cc1cccc2c(-c3coc(N)n3)cccc12` [Compound 21, 4-(5-carbonitrile-naphthalen-1-yl)-oxazol-2-ylamine], the Ki in data set [1] is greater than 10000 nM; in data set [2], greater than 1000 nM; in data set [3], less than 10000 nM.
With `Nc1nc(-c2c(O)ccc3ccccc23)co1` [Compound 22, 1-(2-amino-oxazol-4-yl)-naphthalen-2-ol], the Ki in data set [1] is greater than 1000 nM; in data set [3], less than 100 nM.
Consider `COC(=O)COc1ccc2ccccc2c1-c1coc(N)n1` [Compound 23, [1-(2-amino-oxazol-4-yl)-naphthalen-2-yloxy]-acetic acid methyl ester], for which the Ki in data set [2] is greater than 10000 nM; in data set [3] it was less than 1000 nM.
For the compound `NC(=O)c1ccc2cccc(-c3coc(N)n3)c2c1` [Compound 24, 8-(2-amino-oxazol-4-yl)-naphthalene-2-carboxylic acid amide], the Ki in data set [1] is greater than 10000 nM; in data set [2] it was greater than 10000 nM; in data set [3], less than 10000 nM.
`COc1ccc2ccccc2c1-c1oc(N)nc1C` [Compound 26, 5-(2-methoxy-naphthalen-1-yl)-4-methyl-oxazol-2-ylamine]: the figures for the Ki in data set [1] and in data set [3] were greater than 1000 nM and less than 10 nM, respectively.
As for `CC(=O)OCc1nc(N)oc1-c1cccc2ccccc12` [Compound 28, acetic acid 2-amino-5-naphthalen-1-yl-oxazol-4-ylmethyl ester], the Ki in data set [1] was greater than 10000 nM; in data set [3], less than 100 nM.
For `Nc1nc(CO)c(-c2cccc3ccccc23)o1` [Compound 29, (2-amino-5-naphthalen-1-yl-oxazol-4-yl)-methanol], the Ki in data set [2] is greater than 1000 nM; in data set [3], less than 100 nM.
For `Cc1oc(N)nc1-c1cccc2ccccc12` [Compound 30, 5-Methyl-4-naphthalen-1-yl-oxazol-2-ylamine], the Ki in data set [1] is greater than 10000 nM; in data set [3] it was less than 100 nM.
